Our source for the Kd values is publication PMC4651778 (Journal of structural biology, 2015).

Assay [1] addresses Liver Receptor Homolog-1 (LRH-1, NR5A2) (Homo sapiens, UniProt O00482). Nature of the assay: crystal structure. It counts as binding.
For assay [2], the target named is T1, DAX-1 140-154 (Homo sapiens, UniProt P51843).
T1 chain: PRQGSILYSLLTSSK
Nature of the assay: SPR. A general note: Surface plasmon resonance follows binding to a sensor surface in real time, without labels.

Chain of Liver Receptor Homolog-1 (LRH-1, NR5A2) (O00482 294-541): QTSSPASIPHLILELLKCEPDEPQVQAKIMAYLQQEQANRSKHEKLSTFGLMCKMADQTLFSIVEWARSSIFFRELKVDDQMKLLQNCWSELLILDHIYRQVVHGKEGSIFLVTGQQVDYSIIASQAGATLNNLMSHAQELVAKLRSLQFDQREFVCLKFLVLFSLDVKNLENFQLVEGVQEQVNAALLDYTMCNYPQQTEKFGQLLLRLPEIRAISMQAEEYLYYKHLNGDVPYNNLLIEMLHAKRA

The Kd is the constant that tells how readily two partners part at equilibrium. In assay [1], `CCCCCCCCCCCCCCCC(=O)OC[C@@H](COP(=O)(O)O[C@H]1[C@H](O)[C@@H](OP(=O)(O)O)[C@H](OP(=O)(O)O)[C@@H](OP(=O)(O)O)[C@H]1O)OC(=O)CCCCCCCCCCCCCCC` [PIP3] registered a dissociation constant (Kd) of 120 ± 9 nM.

B1: LRH-1 LBD (protein)
chain: SIPHLILELLKCEPDEPQVQAKIMAYLQQEQANRSKHEKLSTFGLMCKMADQTLFSIVEWARSSIFFRELKVDDQMKLLQNCWSELLILDHIYRQVVHGKEGSIFLVTGQQVDYSIIASQAGATLNNLMSHAQELVAKLRSLQFDQREFVCLKFLVLFSLDVKNLENFQLVEGVQEQVNAALLDYTMCNYPQQTEKFGQLLLRLPEIRAISMQAEEYLYYKHLNGDVPYNNLLIEMLHAK
The molecule B1 gave a Kd in assay [2] of 90 nM.
